The text below walks through data of PMC9243654 (Frontiers in Nutrition, 2022).

Read-outs that look alike come from different tables or passages of the source.

The conditions of data set [1]: ref PubChem database, cited from earlier work.
Another data set can be described thus: in vitro. The essentials:
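PAMPA-BBB with lipid membrane of PBL and cholesterol in n-dodecane; donor contains extract in EtOH/PBS pH 7.4 (1:1), acceptor PBS. Incubated 4 h at 37°C in the dark; donor and acceptor analysed by UHPLC-Q-TOF-MS, Pe calculated from acceptor and equilibrium concentrations.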

The conditions of data set [2]: cited from earlier work.
[3] abbreviates: compounds of RSFE extract, octanol-water partition coefficient.
Where [4] appears, read: PAMPA, pH 7.4, PAMPA-BBB log Pe (cm s−1).
The mark [5] stands for this setting: compounds from Ginkgo biloba L. extract, ref Könczöl et al. ([69]).

In general, Log P refers to the decadic logarithm of the partition coefficient of the neutral form, usually between octanol and water. One may read the Papp as the rate of passage across a membrane or cell layer, normalised by area and donor concentration. Turning to `O=c1c(O)c(-c2ccc(O)cc2)oc2cc(O)cc(O)c12` [Kaempferol], the “Log P” value in data set [1] (compounds identified in LPLE extract), in data set [1] (compounds of ASFE extract) and in data set [1] (compounds of KD extract) was 1.9 in each case. Further, the Papp at 4 h is 2.29 ×10⁻⁶ cm/s in “in vitro” (PAMPA, pH 7.4, PAMPA-BBB log Pe (cm s−1), compound within ASFE extract, 4 h, 37°C, PBS pH 7.4); 14.8 ×10⁻⁶ cm/s in “in vitro” (PAMPA, pH 7.4, PAMPA-BBB log Pe (cm s−1), compound within KD extract, 4 h, 37°C, PBS pH 7.4); 21.4 ×10⁻⁶ cm/s in “in vitro” (PAMPA, pH 7.4, PAMPA-BBB log Pe, compound within LPLE (Nothofagus pumilio, lenga PLE extract), N.D = not detected in acceptor). Further, in data set [2] (PAMPA), the “PAMPA-BBB logPe” value was −5.13.

Take `COc1cc(-c2oc3cc(O)cc(O)c3c(=O)c2O)ccc1O` [Isorhamnetin]: in data set [1] (setting [3]), the lipophilicity (Log P) is 1.9. In addition, in “in vitro” (PAMPA), the “Cross BBB potential” value was “+++ (key: -: not detected in acceptor; +: log Pe > −6.5; ++: log Pe > −5.5; +++: log Pe > −4.5)”. In “in vitro” (setting [4]), the Papp was 49 ×10⁻⁶ cm/s. Further, the “PAMPA-BBB logPe” value in data set [2] (setting [5]) is −5.46.

Take `O=c1cc(-c2ccc(O)cc2)oc2cc(O)cc(O)c12` [Apigenin]: in the data set “in vitro” (setting [4]), the Papp was 26.3 ×10⁻⁶ cm/s. In addition, the “Cross BBB potential” value in the data set “in vitro” (compound within RSFE extract) is recorded as “++ (log Pe > −5.5)”. The “PAMPA-BBB logPe” value in data set [2] (setting [5]) is given as −5.35.

Consider `COc1ccc2c3c1O[C@H]1C[C@@H](O)C=C[C@@]31CCN(C)C2` [galantamine, reference compound], for which the “logPe (cm s^−1)” value in data set [2] (therapeutic drug for comparison, ref [70]) is on record as “–5.35 ± 0.02 cm s^−1”.

Regarding `C[C@@]12O[C@H]3C[C@@H](O1)[C@]1(C=O)[C@H]4[C@H](O)C[C@]5(C)[C@@H](c6ccc(=O)oc6)CC[C@]5(O)[C@@H]4CC[C@@]1(C3)O2` [Bryophyllin A], in data set [1] (compounds of KD extract), the “Log P” value was 0.6. Besides, in “in vitro” (compound within KD extract), the “Cross BBB potential” value is “-”.

Consider `O=C(/C=C/c1ccc(O)c(O)c1)O[C@@H](C(=O)O)[C@@H](O)C(=O)O` [Caftaric acid], for which the “Log P” value in data set [1] (compounds of ASFE extract) is on record as 0.1. For the same compound, the “Cross BBB potential” value in the data set “in vitro” (PAMPA) was “-”.

`C=C(C)[C@@H]1CC[C@]2(C(=O)O)CC[C@]3(C)[C@H](CC[C@@H]4[C@@]5(C)CC[C@H](O)[C@@](C)(CO)[C@@H]5CC[C@]43C)[C@@H]12` [Anemosapogenin]: in data set [1] (setting [3]), the “Log P” value is reported as 7.5. The “Cross BBB potential” value in “in vitro” (PAMPA) is listed as “++ (key: -: not detected in acceptor; +: log Pe > −6.5; ++: log Pe > −5.5; +++: log Pe > −4.5)”. Besides, in “in vitro” (PAMPA, pH 7.4), the “PAMPA-BBB log Pe (cm s−1)” value is given as −5.26 cm s−1.
